System: Isolated cuticles from apple leaves (Malus domestica cv. 'Golden Delicious')
Test: Leaf penetration (Franz cell diffusion of Imidacloprid through isolated cuticles)
Assay type: in vitro ADME
Conditions: active alone without penetrant
Protocol: The following test method was used to assess leaf penetration properties of the synthesised ethoxylated polyol alkoxylates P1 to P18.
Franz cells were set up containing: • Receptor solution: 10 mM sodium phosphate buffer pH 6.0 containing 0.1 mM sodium azide • Donor solution: unformulated pesticide containing 0.5 g/l of Imidacloprid (N-[1-[(6-Chloro-3-pyridyl)methyl]-4,5-dihydroimidazol-2-yl]nitramide) and 2.5 g/l of penetrant, in 5 mM lactic acid (pre-buffered with KOH), preserved with 0.5 mM sodium azide, (+/−0.25% w/v), i.e. 2.5 g/l donor).
The Franz cell experiments were used for diffusion experiments. Isolated cuticles from apple leaves (Malus domestica cv. ‘Golden Delicious’) were prepared based on the method detailed in US 2009/0247597. The donor compartment was removed to aid deposit formation. Experiments were performed at a controlled temperature of 20° C., and a controlled relative humidity of 58%. A calibration was carried out (0-100% penetration) obtaining the concentration of Imidacloprid in the receiver solution removed from the Franz Cell.
HPLC-UV was used to assay imidacloprid concentration using an Agilent 1260 Quaternary LC system. Each penetrant was tested for leaf penetration properties, with a total of 18 Franz cells used for percentage penetration determination. A calibration was carried out before each set of samples was analysed. […]

## O=[N+]([O-])NC1=NCCN1Cc1ccc(Cl)nc1 [Imidacloprid, N-[1-[(6-Chloro-3-pyridyl)methyl]-4,5-dihydroimidazol-2-yl]nitramide]
  % penetration after 72 hours: 1.7%

From patent US9681658B2, “Penetrants for agrochemical formulations” (CRODA INTERNATIONAL PLC, priority 2012, dated 2017)
